The subject of series [1] is mouse peritoneal macrophages. Briefly: Cytotoxicity assays (MTT cell respiration and neutral red uptake). The series is classed as cell-based. Conditions: isolated phytocannabinoids, 24 hours incubation, highest 10 μM concentration, FIG. 1. Here is the method: Peritoneal macrophages were obtained from mice as previously described by Rossi et al. (Rossi et al. 2010). Briefly, to evoke the production of peritoneal exudates rich in macrophages, mice were injected intraperitoneally (i.p.) with 1 ml of 10% sterile thioglycollate (Sigma, Milan, Italy). After 4 days, mice were euthanized and peritoneal macrophages were collected and seeded in appropriate plates for performing in vitro experiments.
Peritoneal macrophages were cultured in Dulbecco's modified Eagle's medium (DMEM) supplemented with 10% fetal bovine serum. The inflammatory response in peritoneal macrophages was induced by lipopolysaccharide (LPS) from Escherichia coli serotype 0111:B4 (1 μg/ml). The response in macrophages was measured after 18 h LPS incubation.
Cell viability was assessed by evaluating cell respiration as well as neutral red (NR) uptake. Cell respiration was assessed by the mitochondrial-dependent reduction of 3-(4,5-dimethylthiazol-2-yl)-2,5-diphenyltetrazolium bromide (MTT) to formazan. After incubation with one of the phytocannabinoids for 24 hours, macrophages (1×10^5 cells per well seeded in a 96-well plate) were incubated with MTT (250 μg/ml) for 1 h.
The extent of reduction of MTT to formazan was quantitated by measuring the optical density at 490 nm (iMark™ microplate assorbance reader, BioRad). […]

Series [2] deals with LPS-stimulated nitrite levels in mouse peritoneal macrophages. Nature of the series: Nitrites measurement in medium of LPS-stimulated macrophages. The format is cell-based. Conditions: non-cytotoxic concentrations (0.1-10 pM), 30 min pre-treatment, then LPS 1 μg/ml 18 hours, FIG. 3 and 4. The method, then: Briefly, to evoke the production of peritoneal exudates rich in macrophages, mice were injected intraperitoneally (i.p.) with 1 ml of 10% sterile thioglycollate (Sigma, Milan, Italy). After 4 days, mice were euthanized and peritoneal macrophages were collected and seeded in appropriate plates for performing in vitro experiments.
Peritoneal macrophages were cultured in Dulbecco's modified Eagle's medium (DMEM) supplemented with 10% fetal bovine serum. […] The response in macrophages was measured after 18 h LPS incubation.
Nitrites, stable metabolites of NO, were measured in macrophages medium as previously described. Macrophages (5×10^5 cells per well seeded in a 24-well plate) were incubated with test article ([…]) for 30 min, and subsequently with LPS (1 μg/ml) for 18 hours.
The test articles were used at non-cytotoxic concentrations as a pre-treatment for 30 min before LPS-stimulation.

Series [3] has as its system DNBS-induced colitis mice. Briefly: DNBS-induced colitis, body weight and colon weight/colon length ratio. The series is classed as in vivo, mouse. The method, then:
(§1) Cannabigerol (CBG), cannabichromene (CBC) and tetrahydrocannabivarin (THCV) were dissolved in ethanol/Tween20/saline. Animals were placed in groups and administered with test article (60 μl per mouse) via IP once daily. Treatment started 3 days before DNBS administration for the preventative treatment experiments or 1 day after DNBS administration for the curative treatments. Test article was administered daily until the sacrifice of the animals, 3 days after DNBS treatment. THCV was only tested for a curative effect.
(§2) Colitis was induced in mice by the intra-colonic administration of DNBS. Briefly, mice were anesthetized and DNBS (8 mg/mouse) was inserted into the colon using a polyethylene catheter (1 mm in diameter) via the rectum (4.5 cm from the anus). Three days after DNBS administration, all animals were euthanized by asphyxiation with CO2. The abdomen was opened by a midline incision and the colon removed, isolated from surrounding tissues, opened along the anti-mesenteric border, rinsed, weighed, length measured, and processed for evaluations.
The colon weight/colon length ratio activity were determined as index of inflammation. Body weight was also evaluated.

Series [4] has as its system inducible nitric oxide synthase (iNOS). Nature of the series: iNOS expression in full-thickness colons by western blot, DNBS-induced colitis. The series is classed as in vivo, mouse. Conditions: DNBS-treated mice, FIG. 11. The method, then: as §1, §2
iNOS expression was measured in full-thickness colons from control and DNBS-treated mice by western blot analysis.

Series [5] concerns DNBS model of intestinal bowel disease in mice. Conditions: cited from earlier work.
The mark [6] stands for this setting: post-treatment (curative), IP once daily from 1 day after DNBS.
[7] abbreviates: pre-treatment (preventative), IP once daily from 3 days before DNBS.
Where [8] appears, read: treatment after induction of colitis (curative), IP once daily from 1 day after DNBS.

“Also recorded” adds a separate entry of the source.

As to `CCCCCc1cc(O)c2c(c1)OC(C)(CCC=C(C)C)C=C2` (centres unmarked) [CBC, Cannabichromene], in series [1], the “cytotoxicity / cell viability” value was “significantly reduced cell viability”. Also, the LPS-stimulated nitrite levels result in series [2] is “reduce LPS-stimulated nitrite production”. The “colon weight:colon length ratio” value is “decrease in the colon weight:length ration however this was not as statistically significant” in series [3] (setting [6]) and “significant (p<0.05) reduction” in series [3] (setting [7]). Moreover, the figures for the “body weight (decrease associated with the inflammatory response)” value in series [3] (setting [7]) and in series [3] (setting [8]) were “significant (p<0.05) prevention of the decrease in bodyweight” and “did not however result in a decrease in body weight”, respectively. For the same molecule, the “level of expression of iNOS in colonic tissues” value (“level of expression of iNOS” below) in series [4] was “did not show a reduction”.
`C=C(C)[C@@H]1CCC(C)=C[C@H]1c1c(O)cc(CCCCC)cc1O` [CBD, Cannabidiol]: in series [5], the “anti-inflammatory effect in DNBS model” value is “anti-inflammatory effect”.
Consider `C=C(C)[C@@H]1CCC(C)=C[C@H]1c1c(O)cc(CCC)cc1O` [CBDV, Cannabidivarin], for which, in series [2], the LPS-stimulated nitrite levels result is reported as “reduce LPS-stimulated nitrite production”.
`CCCCCc1cc(O)c(C/C=C(\C)CCC=C(C)C)c(O)c1` [CBG, Cannabigerol]: in series [2], the LPS-stimulated nitrite levels entry was “significantly reduced; also recorded: reduce LPS-stimulated nitrite production”. In addition, the “colon weight:colon length ratio” value in series [3] (setting [6]) and in series [3] (setting [7]) was “significant (p<0.05) reduction” throughout. Further, the “body weight (decrease associated with the inflammatory response)” value is given as “highly statistically significant (p<0.001) prevention of the decrease in bodyweight” in series [3] (setting [7]) and “did however not result in a decrease in body weight” in series [3] (setting [8]). Moreover, the “level of expression of iNOS” value in series [4] is recorded as “statistically significantly (p<0.05) lower”.
`CCCc1cc(O)c2c(c1)OC(C)(C)[C@@H]1CCC(C)=C[C@@H]21` [THCV, Tetrahydrocannabivarin]: in series [1], the “cytotoxicity / cell viability” value is listed as “significantly reduced cell viability”. For the same molecule, the LPS-stimulated nitrite levels result in series [2] was “significantly reduced; also recorded: reduce LPS-stimulated nitrite production”. Moreover, in series [3] (setting [6]), the “colon weight:colon length ratio” value was “significant (p<0.05) reduction”. In addition, the “body weight (decrease associated with the inflammatory response)” value in series [3] (setting [8]) is on record as “prevention of the decrease in bodyweight that is associated with the inflammatory response, however this decrease was not statistically significant”. Also, the “level of expression of iNOS” value in series [4] is “statistically significantly (p<0.001) lower”.

The values above are taken from patent US9421187B2, “Phytocannabinoids for use in the treatment of intestinal inflammatory diseases” (GW Pharma Limited, priority 2011, dated 2016).
